Assay results: article PMC6199309, “A therapeutic approach to pantothenate kinase associated neurodegeneration” (Nature Communications, 2018)

Assays:
[1] = target: T1, ABL1(E255K)-phosphorylated (Homo sapiens, UniProt P00519, E255K); test: KINOMEscan; assay type: binding; conditions: read-out: %Ctrl @ 10000nM
T1 construct: purchased DiscoverX KINOMEscan

[2] = target: T2, ABL1(F317L)-nonphosphorylated (Homo sapiens, UniProt P00519, F317L); test: KINOMEscan; assay type: binding; conditions: read-out: %Ctrl @ 10000nM
T2 construct: purchased DiscoverX KINOMEscan

ASK1 = target: T3, ASK1 (Homo sapiens, UniProt Q99683); test: KINOMEscan; assay type: binding; conditions: read-out: %Ctrl @ 10000nM
T3 construct: purchased DiscoverX KINOMEscan

BRK = target: T4, BRK (Homo sapiens, UniProt Q13882); test: KINOMEscan; assay type: binding; conditions: read-out: %Ctrl @ 10000nM
T4 construct: purchased DiscoverX KINOMEscan

CAMK1B = target: T5, CAMK1B (Homo sapiens, UniProt Q6P2M8); test: KINOMEscan; assay type: binding; conditions: read-out: %Ctrl @ 10000nM
T5 construct: purchased DiscoverX KINOMEscan

CDK7 = target: T6, CDK7 (Homo sapiens, UniProt P50613); test: KINOMEscan; assay type: binding; conditions: read-out: %Ctrl @ 10000nM
T6 construct: purchased DiscoverX KINOMEscan

CSNK1A1L = target: T7, CSNK1A1L (Homo sapiens, UniProt Q8N752); test: KINOMEscan; assay type: binding; conditions: read-out: %Ctrl @ 10000nM
T7 construct: purchased DiscoverX KINOMEscan

EGFR(L858R,T790M) = target: T8, EGFR(L858R,T790M) (Homo sapiens, UniProt P00533, L858R/T790M); test: KINOMEscan; assay type: binding; conditions: read-out: %Ctrl @ 10000nM
T8 construct: purchased DiscoverX KINOMEscan

ERN1 = target: T9, ERN1 (Homo sapiens, UniProt O75460); test: KINOMEscan; assay type: binding; conditions: read-out: %Ctrl @ 10000nM
T9 construct: purchased DiscoverX KINOMEscan

HASPIN = target: T10, HASPIN (Homo sapiens, UniProt Q8TF76); test: KINOMEscan; assay type: binding; conditions: read-out: %Ctrl @ 10000nM
T10 construct: purchased DiscoverX KINOMEscan

IKK-epsilon = target: T11, IKK-epsilon (Homo sapiens, UniProt Q14164); test: KINOMEscan; assay type: binding; conditions: read-out: %Ctrl @ 10000nM
T11 construct: purchased DiscoverX KINOMEscan

KIT(V559D) = target: T12, KIT(V559D) (Homo sapiens, UniProt P10721, V559D); test: KINOMEscan; assay type: binding; conditions: read-out: %Ctrl @ 10000nM
T12 construct: purchased DiscoverX KINOMEscan

KIT(V559D,V654A) = target: T13, KIT(V559D,V654A) (Homo sapiens, UniProt P10721, V559D/V654A); test: KINOMEscan; assay type: binding; conditions: read-out: %Ctrl @ 10000nM
T13 construct: purchased DiscoverX KINOMEscan

LIMK2 = target: T14, LIMK2 (Homo sapiens, UniProt P53671); test: KINOMEscan; assay type: binding; conditions: read-out: %Ctrl @ 10000nM
T14 construct: purchased DiscoverX KINOMEscan

LYN = target: T15, LYN (Homo sapiens, UniProt P07948); test: KINOMEscan; assay type: binding; conditions: read-out: %Ctrl @ 10000nM
T15 construct: purchased DiscoverX KINOMEscan

MLK1 = target: T16, MLK1 (Homo sapiens, UniProt P80192); test: KINOMEscan; assay type: binding; conditions: read-out: %Ctrl @ 10000nM
T16 construct: purchased DiscoverX KINOMEscan

MST1 = target: T17, MST1 (Homo sapiens, UniProt Q13043); test: KINOMEscan; assay type: binding; conditions: read-out: %Ctrl @ 10000nM
T17 construct: purchased DiscoverX KINOMEscan

MST1R = target: T18, MST1R (Homo sapiens, UniProt Q04912); test: KINOMEscan; assay type: binding; conditions: read-out: %Ctrl @ 10000nM
T18 construct: purchased DiscoverX KINOMEscan

MST3 = target: T19, MST3 (Homo sapiens, UniProt Q9Y6E0); test: KINOMEscan; assay type: binding; conditions: read-out: %Ctrl @ 10000nM
T19 construct: purchased DiscoverX KINOMEscan

PAK3 = target: T20, PAK3 (Homo sapiens, UniProt O75914); test: KINOMEscan; assay type: binding; conditions: read-out: %Ctrl @ 10000nM
T20 construct: purchased DiscoverX KINOMEscan

PCTK3 = target: T21, PCTK3 (Homo sapiens, UniProt Q07002); test: KINOMEscan; assay type: binding; conditions: read-out: %Ctrl @ 10000nM
T21 construct: purchased DiscoverX KINOMEscan

PIK3C2G = target: T22, PIK3C2G (Homo sapiens, UniProt O75747); test: KINOMEscan; assay type: binding; conditions: read-out: %Ctrl @ 10000nM
T22 construct: purchased DiscoverX KINOMEscan

PIK3CA(E545A) = target: T23, PIK3CA(E545A) (Homo sapiens, UniProt P42336, E545A); test: KINOMEscan; assay type: binding; conditions: read-out: %Ctrl @ 10000nM
T23 construct: purchased DiscoverX KINOMEscan

PLK4 = target: T24, PLK4 (Homo sapiens, UniProt O00444); test: KINOMEscan; assay type: binding; conditions: read-out: %Ctrl @ 10000nM
T24 construct: purchased DiscoverX KINOMEscan

RIOK1 = target: T25, RIOK1 (Homo sapiens, UniProt Q9BRS2); test: KINOMEscan; assay type: binding; conditions: read-out: %Ctrl @ 10000nM
T25 construct: purchased DiscoverX KINOMEscan

SRC = target: T26, SRC (Homo sapiens, UniProt P12931); test: KINOMEscan; assay type: binding; conditions: read-out: %Ctrl @ 10000nM
T26 construct: purchased DiscoverX KINOMEscan

TNK1 = target: T27, TNK1 (Homo sapiens, UniProt Q13470); test: KINOMEscan; assay type: binding; conditions: read-out: %Ctrl @ 10000nM
T27 construct: purchased DiscoverX KINOMEscan

ULK1 = target: T28, ULK1 (Homo sapiens, UniProt O75385); test: KINOMEscan; assay type: binding; conditions: read-out: %Ctrl @ 10000nM
T28 construct: DNA label for qPCR (T7 phage fusion or DNA tag); purchased DiscoverX scanMAX; host or cells: E. coli BL21-derived (T7 phage) or HEK-293

WEE2 = target: T29, WEE2 (Homo sapiens, UniProt P0C1S8); test: KINOMEscan; assay type: binding; conditions: read-out: %Ctrl @ 10000nM
T29 construct: DNA label for qPCR (T7 phage fusion or DNA tag); purchased DiscoverX scanMAX; host or cells: E. coli BL21-derived (T7 phage) or HEK-293

WNK2 = target: T30, WNK2 (Homo sapiens, UniProt Q9Y3S1); test: KINOMEscan; assay type: binding; conditions: read-out: %Ctrl @ 10000nM
T30 construct: DNA label for qPCR (T7 phage fusion or DNA tag); purchased DiscoverX scanMAX; host or cells: E. coli BL21-derived (T7 phage) or HEK-293

ZAK = target: T31, ZAK (Homo sapiens, UniProt Q9NYL2); test: KINOMEscan; assay type: binding; conditions: read-out: %Ctrl @ 10000nM
T31 construct: purchased DiscoverX scanMAX; host or cells: E. coli BL21-derived host (T7 phage) or HEK-293

Plasma stability = assay type: in vitro ADME; conditions: mouse, read-out: Plasma Stability T1/2
Protein binding = conditions: rat

T15 sequence (P07948 whole entry): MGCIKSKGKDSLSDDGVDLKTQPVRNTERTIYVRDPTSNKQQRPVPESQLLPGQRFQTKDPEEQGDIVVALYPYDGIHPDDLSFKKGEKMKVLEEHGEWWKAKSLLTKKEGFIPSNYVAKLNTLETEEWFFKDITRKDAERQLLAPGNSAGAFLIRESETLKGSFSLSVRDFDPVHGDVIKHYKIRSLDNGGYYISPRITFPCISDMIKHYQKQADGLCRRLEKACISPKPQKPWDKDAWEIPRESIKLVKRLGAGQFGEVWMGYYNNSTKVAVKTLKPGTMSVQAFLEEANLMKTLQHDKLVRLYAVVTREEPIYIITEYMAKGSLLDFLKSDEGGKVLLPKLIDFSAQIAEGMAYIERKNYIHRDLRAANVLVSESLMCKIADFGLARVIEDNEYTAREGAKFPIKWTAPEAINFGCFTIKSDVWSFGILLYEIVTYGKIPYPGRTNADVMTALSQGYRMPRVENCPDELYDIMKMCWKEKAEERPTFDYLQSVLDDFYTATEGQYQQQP
T30 sequence (Q9Y3S1 whole entry, the tested form may be a part): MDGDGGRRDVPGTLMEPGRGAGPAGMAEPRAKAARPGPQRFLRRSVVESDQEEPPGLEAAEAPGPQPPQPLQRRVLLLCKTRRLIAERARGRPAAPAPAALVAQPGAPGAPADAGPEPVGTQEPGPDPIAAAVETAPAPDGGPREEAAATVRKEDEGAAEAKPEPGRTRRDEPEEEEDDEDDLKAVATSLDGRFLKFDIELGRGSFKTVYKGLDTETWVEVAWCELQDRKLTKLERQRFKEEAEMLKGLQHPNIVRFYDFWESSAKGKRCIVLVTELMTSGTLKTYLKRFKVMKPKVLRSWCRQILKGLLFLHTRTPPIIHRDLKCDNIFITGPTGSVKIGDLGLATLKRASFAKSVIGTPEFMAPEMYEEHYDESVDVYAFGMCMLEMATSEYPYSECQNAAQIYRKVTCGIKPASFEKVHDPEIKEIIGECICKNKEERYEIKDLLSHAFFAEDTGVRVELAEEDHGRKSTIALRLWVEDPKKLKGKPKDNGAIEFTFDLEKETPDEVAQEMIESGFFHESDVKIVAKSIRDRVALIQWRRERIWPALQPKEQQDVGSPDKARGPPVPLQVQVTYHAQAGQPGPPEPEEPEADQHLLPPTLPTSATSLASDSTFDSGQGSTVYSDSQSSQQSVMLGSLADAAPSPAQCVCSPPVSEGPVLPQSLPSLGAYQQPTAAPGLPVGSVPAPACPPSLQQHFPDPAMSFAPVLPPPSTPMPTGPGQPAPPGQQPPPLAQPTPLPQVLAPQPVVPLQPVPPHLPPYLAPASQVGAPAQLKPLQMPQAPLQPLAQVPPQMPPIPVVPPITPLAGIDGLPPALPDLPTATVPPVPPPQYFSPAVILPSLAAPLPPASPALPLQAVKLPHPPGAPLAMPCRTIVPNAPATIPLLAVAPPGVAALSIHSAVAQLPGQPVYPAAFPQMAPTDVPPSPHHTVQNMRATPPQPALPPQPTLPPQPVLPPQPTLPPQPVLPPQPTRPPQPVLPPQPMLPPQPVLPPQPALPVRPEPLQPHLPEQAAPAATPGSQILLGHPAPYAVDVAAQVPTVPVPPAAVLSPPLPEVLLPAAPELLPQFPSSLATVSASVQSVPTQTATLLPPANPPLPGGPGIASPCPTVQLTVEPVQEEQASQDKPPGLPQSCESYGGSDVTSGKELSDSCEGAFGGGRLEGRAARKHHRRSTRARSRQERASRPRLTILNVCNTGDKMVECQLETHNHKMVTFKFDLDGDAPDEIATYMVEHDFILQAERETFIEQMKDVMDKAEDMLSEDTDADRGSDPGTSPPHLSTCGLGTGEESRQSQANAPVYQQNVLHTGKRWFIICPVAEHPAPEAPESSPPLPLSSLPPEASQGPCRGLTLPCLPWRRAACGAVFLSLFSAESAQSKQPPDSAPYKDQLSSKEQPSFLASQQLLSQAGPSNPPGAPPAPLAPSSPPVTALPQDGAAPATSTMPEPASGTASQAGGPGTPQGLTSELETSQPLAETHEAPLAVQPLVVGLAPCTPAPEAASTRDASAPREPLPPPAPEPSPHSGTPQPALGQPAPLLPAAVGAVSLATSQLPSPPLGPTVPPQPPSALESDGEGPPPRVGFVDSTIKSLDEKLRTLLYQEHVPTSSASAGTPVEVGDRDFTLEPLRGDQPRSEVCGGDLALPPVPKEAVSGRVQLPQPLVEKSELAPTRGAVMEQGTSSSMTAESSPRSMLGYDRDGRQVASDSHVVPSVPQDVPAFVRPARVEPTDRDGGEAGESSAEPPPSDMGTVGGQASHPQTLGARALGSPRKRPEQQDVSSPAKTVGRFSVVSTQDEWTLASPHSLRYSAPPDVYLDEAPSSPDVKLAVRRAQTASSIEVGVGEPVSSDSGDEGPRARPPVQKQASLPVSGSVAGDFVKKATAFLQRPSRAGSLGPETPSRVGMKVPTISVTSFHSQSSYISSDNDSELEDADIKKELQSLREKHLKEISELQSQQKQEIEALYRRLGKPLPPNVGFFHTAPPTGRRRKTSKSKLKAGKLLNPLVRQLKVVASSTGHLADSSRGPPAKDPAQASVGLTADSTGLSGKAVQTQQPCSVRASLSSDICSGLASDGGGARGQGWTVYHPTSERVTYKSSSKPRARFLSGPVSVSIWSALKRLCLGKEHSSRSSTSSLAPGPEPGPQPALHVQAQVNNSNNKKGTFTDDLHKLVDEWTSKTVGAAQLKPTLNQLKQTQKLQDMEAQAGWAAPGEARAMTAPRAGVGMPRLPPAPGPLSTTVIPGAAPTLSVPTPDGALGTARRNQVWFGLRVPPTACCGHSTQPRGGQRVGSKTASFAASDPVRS
T21 sequence (Q07002 whole entry): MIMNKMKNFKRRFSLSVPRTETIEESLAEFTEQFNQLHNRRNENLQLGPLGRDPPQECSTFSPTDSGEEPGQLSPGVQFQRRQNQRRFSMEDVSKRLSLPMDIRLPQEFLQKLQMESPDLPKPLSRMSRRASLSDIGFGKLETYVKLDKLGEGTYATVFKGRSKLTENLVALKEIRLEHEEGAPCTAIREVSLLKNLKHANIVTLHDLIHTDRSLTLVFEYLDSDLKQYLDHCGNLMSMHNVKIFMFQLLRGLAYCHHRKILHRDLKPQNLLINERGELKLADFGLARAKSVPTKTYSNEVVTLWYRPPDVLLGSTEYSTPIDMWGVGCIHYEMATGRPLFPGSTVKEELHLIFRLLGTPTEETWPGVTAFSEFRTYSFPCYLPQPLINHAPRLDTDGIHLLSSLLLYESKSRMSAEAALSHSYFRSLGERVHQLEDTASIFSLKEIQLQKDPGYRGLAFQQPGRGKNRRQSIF
T6 sequence (P50613 whole entry): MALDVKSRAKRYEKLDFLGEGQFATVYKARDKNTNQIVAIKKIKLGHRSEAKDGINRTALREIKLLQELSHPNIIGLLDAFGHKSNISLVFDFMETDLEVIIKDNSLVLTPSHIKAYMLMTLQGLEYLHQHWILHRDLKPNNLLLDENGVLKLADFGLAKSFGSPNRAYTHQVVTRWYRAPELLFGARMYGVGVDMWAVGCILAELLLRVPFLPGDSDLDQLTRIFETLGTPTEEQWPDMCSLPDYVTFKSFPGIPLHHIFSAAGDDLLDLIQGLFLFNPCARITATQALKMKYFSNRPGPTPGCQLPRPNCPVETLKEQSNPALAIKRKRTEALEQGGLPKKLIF
T12 sequence (P10721 26-976 V559D): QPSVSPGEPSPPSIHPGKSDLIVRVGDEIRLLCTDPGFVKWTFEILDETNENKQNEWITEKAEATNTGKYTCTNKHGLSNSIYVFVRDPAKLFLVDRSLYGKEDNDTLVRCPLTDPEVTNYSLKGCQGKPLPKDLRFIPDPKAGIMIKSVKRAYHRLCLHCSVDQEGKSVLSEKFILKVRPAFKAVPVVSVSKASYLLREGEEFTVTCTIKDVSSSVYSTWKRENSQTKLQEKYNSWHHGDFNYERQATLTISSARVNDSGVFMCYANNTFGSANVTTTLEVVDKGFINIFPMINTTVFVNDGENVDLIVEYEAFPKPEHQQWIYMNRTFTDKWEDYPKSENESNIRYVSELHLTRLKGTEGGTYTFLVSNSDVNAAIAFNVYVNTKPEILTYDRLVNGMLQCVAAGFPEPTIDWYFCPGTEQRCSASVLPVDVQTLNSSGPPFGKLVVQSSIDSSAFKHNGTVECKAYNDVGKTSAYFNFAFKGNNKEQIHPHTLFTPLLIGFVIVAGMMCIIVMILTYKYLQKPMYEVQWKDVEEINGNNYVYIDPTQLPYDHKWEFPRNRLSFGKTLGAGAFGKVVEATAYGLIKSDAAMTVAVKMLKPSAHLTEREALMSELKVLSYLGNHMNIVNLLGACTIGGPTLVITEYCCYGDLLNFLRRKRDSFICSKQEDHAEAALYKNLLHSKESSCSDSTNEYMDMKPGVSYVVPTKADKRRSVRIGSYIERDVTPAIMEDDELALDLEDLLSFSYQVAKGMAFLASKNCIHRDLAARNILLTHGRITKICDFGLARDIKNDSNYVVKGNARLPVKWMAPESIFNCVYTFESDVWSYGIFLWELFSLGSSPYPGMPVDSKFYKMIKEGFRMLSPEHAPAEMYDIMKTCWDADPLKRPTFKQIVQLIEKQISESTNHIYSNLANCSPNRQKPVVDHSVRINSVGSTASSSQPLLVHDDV
T5 sequence (Q6P2M8 whole entry): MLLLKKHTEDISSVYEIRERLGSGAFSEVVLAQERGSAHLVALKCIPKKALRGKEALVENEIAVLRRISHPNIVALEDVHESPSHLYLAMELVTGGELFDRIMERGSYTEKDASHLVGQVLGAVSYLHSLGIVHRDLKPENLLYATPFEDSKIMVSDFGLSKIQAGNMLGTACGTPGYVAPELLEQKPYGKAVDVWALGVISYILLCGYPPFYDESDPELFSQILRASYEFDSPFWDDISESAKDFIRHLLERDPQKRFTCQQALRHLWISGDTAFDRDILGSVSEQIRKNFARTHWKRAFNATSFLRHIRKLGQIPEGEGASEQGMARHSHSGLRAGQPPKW
T13 sequence (P10721 26-976 V559D/V654A): as the sequence (P10721 26-976 V559D) above, with V629A counted along it

## CC(C)c1ccc(CC(=O)N2CCN(c3ccc(C#N)nn3)CC2)cc1 [PZ-2891, 6-(4-(2-(4-isopropylphenyl)acetyl)piperazin-1-yl)pyridazine-3-carbonitrile]
[1]
  remaining binding at 10 µM: 53%
[2]
  remaining binding at 10 µM: 73%
ASK1
  remaining binding at 10 µM: 74%
BRK
  remaining binding at 10 µM: 80%
CAMK1B
  remaining binding at 10 µM: 100%
CDK7
  remaining binding at 10 µM: 79%
CSNK1A1L
  remaining binding at 10 µM: 100%
EGFR(L858R,T790M)
  remaining binding at 10 µM: 98%
ERN1
  remaining binding at 10 µM: 82%
HASPIN
  remaining binding at 10 µM: 85%
IKK-epsilon
  remaining binding at 10 µM: 89%
KIT(V559D)
  remaining binding at 10 µM: 81%
KIT(V559D,V654A)
  remaining binding at 10 µM: 73%
LIMK2
  remaining binding at 10 µM: 95%
LYN
  remaining binding at 10 µM: 79%
MLK1
  remaining binding at 10 µM: 81%
MST1
  remaining binding at 10 µM: 86%
MST1R
  remaining binding at 10 µM: 73%
MST3
  remaining binding at 10 µM: 73%
PAK3
  remaining binding at 10 µM: 88%
PCTK3
  remaining binding at 10 µM: 92%
PIK3C2G
  remaining binding at 10 µM: 61%
PIK3CA(E545A)
  remaining binding at 10 µM: 64%
PLK4
  remaining binding at 10 µM: 88%
RIOK1
  remaining binding at 10 µM: 100%
SRC
  remaining binding at 10 µM: 97%
TNK1
  remaining binding at 10 µM: 100%
ULK1
  remaining binding at 10 µM: 82%
WEE2
  remaining binding at 10 µM: 99%
WNK2
  remaining binding at 10 µM: 87%
ZAK
  remaining binding at 10 µM: 88%
Plasma stability
  half-life: > 50 h
Protein binding
  fraction unbound: 0.09
